Literature values, collected in patent US7365075B2, “Aryl sulfonamide compounds and uses related thereto” (Amgen Inc., priority 2003, dated 2008).

Structure (SMILES): CC1(C)[C@@H](OC(=O)CCC(=O)O)CC[C@]2(C)[C@H]3C(=O)C=C4[C@@H]5C[C@@](C)(C(=O)O)CC[C@]5(C)CC[C@@]4(C)[C@]3(C)CC[C@@H]12 [carbenoxolone]
- detrimental effects of glucocorticoids on bone nodule formation (bone nodule formation): lessened
- hepatic insulin sensitivity (humans): improved hepatic insulin sensitivity
- reduction of the intraocular pressure (normal patients): 20%
